Source: the supplement of paper PMC10307832

Legend:
Assay in all cases: relative viability (nuclei count vs DMSO), 5 days (fraction); higher = more cells survive
[1] = system: 201T
How it was run: (§1)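 Lung cancer cell lines in 1536-well plates got either a single drug or a fixed anchor-drug dose together with five library-drug doses (not always all listed) in √10 steps, by pin tool, on the day after seeding. Nuclei were counted after 5 days, and relative viability is the treated-to-vehicle ratio of nuclei counts. Values are medians of duplicate plates.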

[2] = system: A-427
How it was run: as §1

[3] = system: COR-L23
How it was run: as §1

[4] = system: H3255
How it was run: as §1

[5] = system: LCLC-103H
How it was run: as §1

[6] = system: LCLC-97TM1
How it was run: as §1

[7] = system: LK-2
How it was run: as §1

[8] = system: LU99A
How it was run: as §1

[9] = system: NCI-H1563
How it was run: as §1

[10] = system: NCI-H1650
How it was run: as §1

[11] = system: NCI-H1651
How it was run: as §1

[12] = system: NCI-H1793
How it was run: as §1

[13] = system: NCI-H1944
How it was run: as §1

[14] = system: NCI-H2347
How it was run: as §1

[15] = system: NCI-H23
How it was run: as §1

[16] = system: NCI-H460
How it was run: as §1

[17] = system: NCI-H650
How it was run: as §1

[18] = system: NCI-H727
How it was run: as §1

[19] = system: NCI-H838
How it was run: as §1

[20] = system: PC-14
How it was run: as §1

[21] = system: PC-3 [JPC-3]
How it was run: as §1

[22] = system: RERF-LC-KJ
How it was run: as §1

[23] = system: SW 1573
How it was run: as §1

[24] = system: SW 900
How it was run: as §1

Question: What does the source list for `Clc1ccc(Nc2nnc(Cc3ccncc3)c3ccccc23)cc1` [Vatalanib] + COc1cccc2cc(-c3nc([C@H]4CC[C@H](C(=O)O)CC4)n4ncnc(N)c34)[nH]c12 [OSI-027] (partner 0.5 µM)?
Answer: relative viability ([1]; first compound 0.04 µM): 0.759; relative viability ([1]; first compound 0.1265 µM): 0.698; relative viability ([1]; first compound 0.4 µM): 0.889; relative viability ([1]; first compound 1.265 µM): 0.657; relative viability ([1]; first compound 4 µM): 0.666; relative viability ([2]; first compound 0.04 µM): 0.504; relative viability ([2]; first compound 0.1265 µM): 0.453; relative viability ([2]; first compound 0.4 µM): 0.494; relative viability ([2]; first compound 1.265 µM): 0.464; relative viability ([2]; first compound 4 µM): 0.486; relative viability ([3]; first compound 0.04 µM): 0.814; relative viability ([3]; first compound 0.1265 µM): 0.765; relative viability ([3]; first compound 0.4 µM): 0.891; relative viability ([3]; first compound 1.265 µM): 0.709; relative viability ([3]; first compound 4 µM): 0.722; relative viability ([4]; first compound 0.04 µM): 0.566; relative viability ([4]; first compound 0.1265 µM): 0.529; relative viability ([4]; first compound 0.4 µM): 0.51; relative viability ([4]; first compound 1.265 µM): 0.584; relative viability ([4]; first compound 4 µM): 0.504; relative viability ([5]; first compound 0.04 µM): 0.496; relative viability ([5]; first compound 0.1265 µM): 0.412; relative viability ([5]; first compound 0.4 µM): 0.55; relative viability ([5]; first compound 1.265 µM): 0.503; relative viability ([5]; first compound 4 µM): 0.457; relative viability ([6]; first compound 0.04 µM): 0.45; relative viability ([6]; first compound 0.1265 µM): 0.398; relative viability ([6]; first compound 0.4 µM): 0.552; relative viability ([6]; first compound 1.265 µM): 0.531; relative viability ([6]; first compound 4 µM): 0.42; relative viability ([7]; first compound 0.04 µM): 0.211; relative viability ([7]; first compound 0.1265 µM): 0.208; relative viability ([7]; first compound 0.4 µM): 0.214; relative viability ([7]; first compound 1.265 µM): 0.196; relative viability ([7]; first compound 4 µM): 0.198; relative viability ([8]; first compound 0.04 µM): 0.262; relative viability ([8]; first compound 0.1265 µM): 0.282; relative viability ([8]; first compound 0.4 µM): 0.358; relative viability ([8]; first compound 1.265 µM): 0.307; relative viability ([8]; first compound 4 µM): 0.277; relative viability ([9]; first compound 0.04 µM): 0.735; relative viability ([9]; first compound 0.1265 µM): 0.677; relative viability ([9]; first compound 0.4 µM): 0.827; relative viability ([9]; first compound 1.265 µM): 0.698; relative viability ([9]; first compound 4 µM): 0.738; relative viability ([10]; first compound 0.04 µM): 0.769; relative viability ([10]; first compound 0.1265 µM): 0.454; relative viability ([10]; first compound 0.4 µM): 0.438; relative viability ([10]; first compound 1.265 µM): 0.633; relative viability ([10]; first compound 4 µM): 0.514; relative viability ([11]; first compound 0.04 µM): 0.751; relative viability ([11]; first compound 0.1265 µM): 0.723; relative viability ([11]; first compound 0.4 µM): 0.662; relative viability ([11]; first compound 1.265 µM): 0.644; relative viability ([11]; first compound 4 µM): 0.615; relative viability ([12]; first compound 0.04 µM): 0.268; relative viability ([12]; first compound 0.1265 µM): 0.226; relative viability ([12]; first compound 0.4 µM): 0.309; relative viability ([12]; first compound 1.265 µM): 0.217; relative viability ([12]; first compound 4 µM): 0.184; relative viability ([13]; first compound 0.04 µM): 0.42; relative viability ([13]; first compound 0.1265 µM): 0.421; relative viability ([13]; first compound 0.4 µM): 0.413; relative viability ([13]; first compound 1.265 µM): 0.411; relative viability ([13]; first compound 4 µM): 0.336; relative viability ([14]; first compound 0.04 µM): 0.397; relative viability ([14]; first compound 0.1265 µM): 0.391; relative viability ([14]; first compound 0.4 µM): 0.488; relative viability ([14]; first compound 1.265 µM): 0.464; relative viability ([14]; first compound 4 µM): 0.364; relative viability ([15]; first compound 0.04 µM): 0.634; relative viability ([15]; first compound 0.1265 µM): 0.613; relative viability ([15]; first compound 0.4 µM): 0.779; relative viability ([15]; first compound 1.265 µM): 0.517; relative viability ([15]; first compound 4 µM): 0.387; relative viability ([16]; first compound 0.04 µM): 0.713; relative viability ([16]; first compound 0.1265 µM): 0.703; relative viability ([16]; first compound 0.4 µM): 0.655; relative viability ([16]; first compound 1.265 µM): 0.65; relative viability ([16]; first compound 4 µM): 0.624; relative viability ([17]; first compound 0.04 µM): 0.627; relative viability ([17]; first compound 0.1265 µM): 0.49; relative viability ([17]; first compound 1.265 µM): 0.491; relative viability ([17]; first compound 4 µM): 0.523; relative viability ([18]; first compound 0.04 µM): 0.562; relative viability ([18]; first compound 0.1265 µM): 0.545; relative viability ([18]; first compound 0.4 µM): 0.653; relative viability ([18]; first compound 1.265 µM): 0.562; relative viability ([18]; first compound 4 µM): 0.45; relative viability ([19]; first compound 0.04 µM): 0.428; relative viability ([19]; first compound 0.1265 µM): 0.384; relative viability ([19]; first compound 0.4 µM): 0.379; relative viability ([19]; first compound 1.265 µM): 0.404; relative viability ([19]; first compound 4 µM): 0.443; relative viability ([20]; first compound 0.04 µM): 1.05; relative viability ([20]; first compound 0.1265 µM): 0.782; relative viability ([20]; first compound 0.4 µM): 0.844; relative viability ([20]; first compound 1.265 µM): 0.672; relative viability ([20]; first compound 4 µM): 0.849; relative viability ([21]; first compound 0.04 µM): 0.752; relative viability ([21]; first compound 0.1265 µM): 0.698; relative viability ([21]; first compound 0.4 µM): 0.771; relative viability ([21]; first compound 1.265 µM): 0.733; relative viability ([21]; first compound 4 µM): 0.672; relative viability ([22]; first compound 0.04 µM): 0.657; relative viability ([22]; first compound 0.1265 µM): 0.591; relative viability ([22]; first compound 0.4 µM): 0.588; relative viability ([22]; first compound 1.265 µM): 0.549; relative viability ([22]; first compound 4 µM): 0.564; relative viability ([23]; first compound 0.04 µM): 0.714; relative viability ([23]; first compound 0.1265 µM): 0.574; relative viability ([23]; first compound 0.4 µM): 0.666; relative viability ([23]; first compound 1.265 µM): 0.585; relative viability ([23]; first compound 4 µM): 0.59; relative viability ([24]; first compound 0.1265 µM): 0.531; relative viability ([24]; first compound 0.4 µM): 0.565; relative viability ([24]; first compound 1.265 µM): 0.618; relative viability ([24]; first compound 4 µM): 0.501
